This note sets out measurements from US11459315B2, “Modulators of methyl modifying enzymes, compositions and uses thereof” (Constellation Pharmaceuticals, Inc., priority 2017, dated 2022).

The target in one assay is PRC2 containing wt EZH2 (Homo sapiens (Human), UniProt Q15910). Kind of assay: EZH2 biochemical assay (IC50), 3H-SAM incorporation into biotinylated H3 peptide. Conditions: 30 pM PRC2 containing wt EZH2, 3-5 h pre-incubation. Put shortly: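 The PRC2 pentamer with wt EZH2 (30 pM) was pre-incubated for 3-5 h with 450 nM SAM plus 450 nM ³H-SAM, 2 µM H3K27me3 activating peptide and compound (0.8% DMSO) in Tris at pH 8.5. Biotinylated H3K27me1 peptide was added and the reaction ran 18-22 h at RT. Incorporated ³H was captured on streptavidin plates, and IC50 was taken from a four-parameter fit.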
Chain of PRC2 containing wt EZH2 (Q15910 whole entry): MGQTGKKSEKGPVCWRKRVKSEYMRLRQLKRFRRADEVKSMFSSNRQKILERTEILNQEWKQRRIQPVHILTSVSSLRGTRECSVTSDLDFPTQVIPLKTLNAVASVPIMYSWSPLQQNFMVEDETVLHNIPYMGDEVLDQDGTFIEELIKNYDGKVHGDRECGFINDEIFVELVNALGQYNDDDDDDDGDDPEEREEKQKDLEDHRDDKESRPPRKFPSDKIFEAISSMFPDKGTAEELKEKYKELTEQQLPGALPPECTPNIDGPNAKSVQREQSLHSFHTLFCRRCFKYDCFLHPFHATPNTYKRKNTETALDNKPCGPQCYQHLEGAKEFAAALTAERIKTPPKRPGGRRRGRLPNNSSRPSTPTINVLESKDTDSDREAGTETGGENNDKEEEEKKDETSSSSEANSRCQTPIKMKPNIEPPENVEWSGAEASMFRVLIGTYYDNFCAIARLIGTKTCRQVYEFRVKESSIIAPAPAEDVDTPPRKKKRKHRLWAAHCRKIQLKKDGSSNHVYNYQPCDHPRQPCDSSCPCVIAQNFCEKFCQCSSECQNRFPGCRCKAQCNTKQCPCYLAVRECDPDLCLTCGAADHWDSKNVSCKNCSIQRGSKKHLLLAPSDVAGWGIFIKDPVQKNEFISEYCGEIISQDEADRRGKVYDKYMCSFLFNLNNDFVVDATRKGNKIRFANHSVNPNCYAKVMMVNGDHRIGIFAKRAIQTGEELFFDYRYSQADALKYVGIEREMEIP
Chain of PRC2 containing wt EZH2 (O75530 whole entry partner): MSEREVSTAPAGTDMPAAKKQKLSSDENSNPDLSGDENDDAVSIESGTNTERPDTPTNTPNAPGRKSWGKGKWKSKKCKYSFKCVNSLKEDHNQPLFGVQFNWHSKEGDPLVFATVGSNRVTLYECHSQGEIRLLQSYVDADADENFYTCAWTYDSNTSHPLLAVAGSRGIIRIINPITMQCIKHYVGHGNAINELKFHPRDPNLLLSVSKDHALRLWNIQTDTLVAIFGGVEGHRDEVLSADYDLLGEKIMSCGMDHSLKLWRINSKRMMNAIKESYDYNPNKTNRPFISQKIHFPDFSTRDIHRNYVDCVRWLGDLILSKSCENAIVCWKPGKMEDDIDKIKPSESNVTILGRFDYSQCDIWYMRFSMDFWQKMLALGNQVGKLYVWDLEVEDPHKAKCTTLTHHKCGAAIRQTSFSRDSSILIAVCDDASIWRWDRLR
Chain of PRC2 containing wt EZH2 (Q15022 whole entry partner): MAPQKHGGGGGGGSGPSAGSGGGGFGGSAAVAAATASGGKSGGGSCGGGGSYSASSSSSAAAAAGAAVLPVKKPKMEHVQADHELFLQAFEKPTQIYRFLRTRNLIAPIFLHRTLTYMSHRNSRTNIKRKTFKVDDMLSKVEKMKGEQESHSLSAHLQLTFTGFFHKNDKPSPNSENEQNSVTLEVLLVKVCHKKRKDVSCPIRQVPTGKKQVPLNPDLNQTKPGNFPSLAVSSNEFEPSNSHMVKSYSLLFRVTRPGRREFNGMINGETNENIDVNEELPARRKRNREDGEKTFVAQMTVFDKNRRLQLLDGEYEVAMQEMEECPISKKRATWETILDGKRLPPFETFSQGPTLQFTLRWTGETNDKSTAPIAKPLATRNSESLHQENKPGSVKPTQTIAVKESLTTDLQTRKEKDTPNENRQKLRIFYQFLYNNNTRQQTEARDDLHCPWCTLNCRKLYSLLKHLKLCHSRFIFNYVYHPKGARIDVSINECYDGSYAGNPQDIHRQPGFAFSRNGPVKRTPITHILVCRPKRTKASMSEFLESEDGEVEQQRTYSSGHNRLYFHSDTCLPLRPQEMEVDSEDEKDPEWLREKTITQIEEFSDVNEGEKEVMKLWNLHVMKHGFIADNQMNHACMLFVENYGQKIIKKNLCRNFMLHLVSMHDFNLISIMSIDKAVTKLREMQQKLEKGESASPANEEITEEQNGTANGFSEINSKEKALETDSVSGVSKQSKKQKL
Chain of PRC2 containing wt EZH2 (Q09028 whole entry partner): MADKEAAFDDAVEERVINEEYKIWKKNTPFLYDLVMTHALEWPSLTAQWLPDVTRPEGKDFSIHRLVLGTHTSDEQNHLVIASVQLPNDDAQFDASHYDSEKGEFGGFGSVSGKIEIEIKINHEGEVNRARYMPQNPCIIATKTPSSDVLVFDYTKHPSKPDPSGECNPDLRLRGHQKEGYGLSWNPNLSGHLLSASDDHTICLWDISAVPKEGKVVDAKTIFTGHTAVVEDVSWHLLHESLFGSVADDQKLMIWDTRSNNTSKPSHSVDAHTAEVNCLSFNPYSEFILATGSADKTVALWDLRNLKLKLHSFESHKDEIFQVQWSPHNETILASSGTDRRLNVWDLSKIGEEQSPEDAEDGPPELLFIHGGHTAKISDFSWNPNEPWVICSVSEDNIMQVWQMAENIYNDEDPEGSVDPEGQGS
Chain of PRC2 containing wt EZH2 (Q6ZN18 whole entry partner): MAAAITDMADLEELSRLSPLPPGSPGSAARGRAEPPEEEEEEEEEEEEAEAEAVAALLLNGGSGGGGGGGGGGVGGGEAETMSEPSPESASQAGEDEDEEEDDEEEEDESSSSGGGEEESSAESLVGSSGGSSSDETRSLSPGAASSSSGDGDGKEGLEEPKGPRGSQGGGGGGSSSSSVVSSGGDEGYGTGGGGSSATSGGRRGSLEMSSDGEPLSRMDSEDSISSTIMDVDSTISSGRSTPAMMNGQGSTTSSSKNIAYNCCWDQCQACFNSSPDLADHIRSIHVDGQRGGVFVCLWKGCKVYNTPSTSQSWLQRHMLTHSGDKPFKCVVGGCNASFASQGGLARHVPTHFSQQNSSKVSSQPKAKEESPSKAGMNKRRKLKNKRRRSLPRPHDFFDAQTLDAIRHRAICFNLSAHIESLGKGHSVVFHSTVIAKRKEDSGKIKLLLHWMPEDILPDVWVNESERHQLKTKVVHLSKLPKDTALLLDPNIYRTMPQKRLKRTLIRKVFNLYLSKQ

The test system of assay [1] is H3K27me3 mark in HeLa cells (EZH2). The experiment in a line: H3K27me3 Alpha Hela Assay (AlphaLISA). The class given is cell-based. The conditions noted are these: Homo sapiens, HeLa, 72 h, HeLa cells, 72 hrs; read-out: EZH2 Cell H3K27me3 Alpha HeLa (EC50 K27me3). Put shortly: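 HeLa cells (1,000/well) treated with ten 3-fold compound doses for 72 h at 37 °C; lysates extracted and H3K27me3 detected by AlphaLISA with anti-K27me3 acceptor beads, biotinylated anti-H3 (3 nM) and streptavidin donor beads. EC50 from DMSO-normalized dose-response curves; duplicate plate assessed viability.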
(In general: In Alpha technology, singlet oxygen from a donor bead excites a nearby acceptor bead.)

The structures appear in SMILES notation. Where two headings read alike, the source gives them in different places.

By IC50 is commonly meant the midpoint of a concentration-inhibition curve. The term EC50 denotes the concentration that produces a half-maximal response. Compound `CSc1cc(C)[nH]c(=O)c1CNC(=O)c1c(C)n([C@H](C)C2CCC(N3CC(F)C3)CC2)c2cc(F)ccc12` (stereo partly drawn) [Example 83, (R)-6-fluoro-1-(1-(4-(3-fluoroazetidin-1-yl)cyclohexyl)ethyl)-2-methyl-N-((6-methyl-4-(methylthio)-2-oxo-1,2-dihydropyridin-3-yl)methyl)-1H-indole-3-carboxamide] displayed a half-maximal inhibitory concentration (IC50) against PRC2 containing wt EZH2 (EZH2 (IC50)) of less than 0.5 nM. Further, in assay [1], the EC50 was less than 10 nM.

Compound `CCSc1cc(C)[nH]c(=O)c1CNC(=O)c1c(C)n([C@H](C)C2CCN(CC(F)(F)F)CC2)c2ccccc12` [Example 86, (R)-N-((4-(ethylthio)-6-methyl-2-oxo-1,2-dihydropyridin-3-yl)methyl)-2-methyl-1-(1-(1-(2,2,2-trifluoroethyl)piperidin-4-yl)ethyl)-1H-indole-3-carboxamide] came in with an IC50 on PRC2 containing wt EZH2 (EZH2 (IC50)) of 0.5 to 5 nM. Moreover, the half-maximal effective concentration (EC50) in assay [1] was 10 to 100 nM.

For `CSc1cc(C)[nH]c(=O)c1CNC(=O)c1c(C)n([C@H](C)C2CCN(CC(F)(F)F)CC2)c2cccc(C)c12` [Example 87, (R)-2,4-dimethyl-N-((6-methyl-4-(methylthio)-2-oxo-1,2-dihydropyridin-3-yl)methyl)-1-(1-(1-(2,2,2-trifluoroethyl)piperidin-4-yl)ethyl)-1H-indole-3-carboxamide], the IC50 against PRC2 containing wt EZH2 (EZH2 (IC50)) fell in the range of 0.5 to 5 nM. In assay [1], the EC50 was less than 10 nM.

On PRC2 containing wt EZH2 (EZH2 (IC50)), `CSc1cc(C)[nH]c(=O)c1CNC(=O)c1c(C)n([C@H](C)C2CCN(CCC(F)(F)F)CC2)c2ccccc12` [Example 88, (R)-2-methyl-N-((6-methyl-4-(methylthio)-2-oxo-1,2-dihydropyridin-3-yl)methyl)-1-(1-(1-(3,3,3-trifluoropropyl)piperidin-4-yl)ethyl)-1H-indole-3-carboxamide] had a half-maximal inhibitory concentration (IC50) of less than 0.5 nM. For the same compound, in assay [1], the EC50 was in the range of 10 to 100 nM.

For `CSc1cc(C)[nH]c(=O)c1CNC(=O)c1c(C)n([C@H](C)C2CCC(NCC(F)(F)F)CC2)c2ncncc12` (stereo partly drawn) [Example 89, 6-methyl-N-((6-methyl-4-(methylthio)-2-oxo-1,2-dihydropyridin-3-yl)methyl)-7-((R)-1-(4-((2,2,2-trifluoroethyl)amino)cyclohexyl)ethyl)-7H-pyrrolo[2,3-d]pyrimidine-5-carboxamide], the IC50 on PRC2 containing wt EZH2 (read-out: EZH2 (IC50)) was less than 0.5 nM. The EC50 in assay [1] lay in the range of 10 to 100 nM.

`CSc1cc(C)[nH]c(=O)c1CNC(=O)c1c(C)n([C@H](C)C2CCN(CC(F)(F)F)CC2)c2cc(F)ccc12` [Example 92, (R)-6-fluoro-2-methyl-N-((6-methyl-4-(methylthio)-2-oxo-1,2-dihydropyridin-3-yl)methyl)-1-(1-(1-(2,2,2-trifluoroethyl)piperidin-4-yl)ethyl)-1H-indole-3-carboxamide]: on PRC2 containing wt EZH2 (EZH2 (IC50)), the half-inhibitory concentration (IC50) is less than 0.5 nM. Besides, the 50% effective concentration (EC50) in assay [1] is less than 10 nM.

For the compound `COC1CN(C2CCC([C@@H](C)n3c(C)c(C(=O)NCc4c(SCF)cc(C)[nH]c4=O)c4ccccc43)CC2)C1` (stereo partly drawn) [Example 93, N-((4-((fluoromethyl)thio)-6-methyl-2-oxo-1,2-dihydropyridin-3-yl)methyl)-1-((R)-1-(4-(3-methoxyazetidin-1-yl)cyclohexyl)ethyl)-2-methyl-1H-indole-3-carboxamide], the IC50 on PRC2 containing wt EZH2 (read-out: EZH2 (IC50)) was less than 0.5 nM. The EC50 in assay [1] is 10 to 100 nM.

Turning to `CSc1cc(C)[nH]c(=O)c1CNC(=O)c1c(C)n([C@H](C)C2CCC(N3CCC(F)(F)C3)CC2)c2ccccc12` (stereo partly drawn) [Example 95, 1-((R)-1-(4-(3,3-difluoropyrrolidin-1-yl)cyclohexyl)ethyl)-2-methyl-N-((6-methyl-4-(methylthio)-2-oxo-1,2-dihydropyridin-3-yl)methyl)-1H-indole-3-carboxamide], the half-maximal inhibitory concentration (IC50) at PRC2 containing wt EZH2 (read-out: EZH2 (IC50)) is less than 0.5 nM. Further, in assay [1], the EC50 was less than 10 nM.

On to `CSc1cc(C)[nH]c(=O)c1CNC(=O)c1c(C)n([C@H](C)C2CCC(N3CC(C(F)F)C3)CC2)c2ncccc12` (stereo partly drawn) [Example 96, 1-((R)-1-(4-(3-(difluoromethyl)azetidin-1-yl)cyclohexyl)ethyl)-2-methyl-N-((6-methyl-4-(methylthio)-2-oxo-1,2-dihydropyridin-3-yl)methyl)-1H-pyrrolo[2,3-b]pyridine-3-carboxamide], for which the IC50 at PRC2 containing wt EZH2 (read-out: EZH2 (IC50)) was less than 0.5 nM. In assay [1], the concentration giving a half-maximal response (EC50) is less than 10 nM.

In the case of `CSc1cc(C)[nH]c(=O)c1CNC(=O)c1c(C)n([C@H](C)C2CCN(CC(F)(F)F)CC2)c2cccc(C#N)c12` [Example 97, (R)-4-cyano-2-methyl-N-((6-methyl-4-(methylthio)-2-oxo-1,2-dihydropyridin-3-yl)methyl)-1-(1-(1-(2,2,2-trifluoroethyl)piperidin-4-yl)ethyl)-1H-indole-3-carboxamide], the IC50 at PRC2 containing wt EZH2 (read-out: EZH2 (IC50)) was more than 5 nM. The EC50 in assay [1] was more than 100 nM.

At PRC2 containing wt EZH2 (EZH2 (IC50)), `CSc1cc(C)[nH]c(=O)c1CNC(=O)c1c(C)n([C@H](C)C2CCC(N3CC(F)C3)CC2)c2ncc(Cl)cc12` (stereo partly drawn) [Example 98, 5-chloro-1-((R)-1-(4-(3-fluoroazetidin-1-yl)cyclohexyl)ethyl)-2-methyl-N-((6-methyl-4-(methylthio)-2-oxo-1,2-dihydropyridin-3-yl)methyl)-1H-pyrrolo[2,3-b]pyridine-3-carboxamide] showed an IC50 of less than 0.5 nM. The half-maximal effective concentration (EC50) in assay [1] is less than 10 nM.

`COC1CN(C2CCC([C@@H](C)n3c(C)c(C(=O)NCc4c(SC5CC5)cc(C)[nH]c4=O)c4ccccc43)CC2)C1` (stereo partly drawn) [Example 99, N-((4-(cyclopropylthio)-6-methyl-2-oxo-1,2-dihydropyridin-3-yl)methyl)-1-((R)-1-(4-(3-methoxyazetidin-1-yl)cyclohexyl)ethyl)-2-methyl-1H-indole-3-carboxamide]: the half-maximal inhibitory concentration (IC50) at PRC2 containing wt EZH2 (read-out: EZH2 (IC50)) is less than 0.5 nM. In addition, in assay [1], the half-maximal effective concentration (EC50) lay within 10 to 100 nM.

For `CSc1cc(C)[nH]c(=O)c1CNC(=O)c1c(C)n([C@H](C)C2CCC(N3CC(OC4CC4)C3)CC2)c2ccccc12` (stereo partly drawn) [Example 100, 1-((R)-1-(4-(3-cyclopropoxyazetidin-1-yl)cyclohexyl)ethyl)-2-methyl-N-((6-methyl-4-(methylthio)-2-oxo-1,2-dihydropyridin-3-yl)methyl)-1H-indole-3-carboxamide], on PRC2 containing wt EZH2 (read-out: EZH2 (IC50)), the 50% inhibitory concentration (IC50) was less than 0.5 nM. Besides, in assay [1], the EC50 is less than 10 nM.

With `COc1cccc2c1c(C(=O)NCc1c(SC)cc(C)[nH]c1=O)c(C)n2[C@H](C)C1CCN(CC(F)(F)F)CC1` [Example 101, (R)-4-methoxy-2-methyl-N-((6-methyl-4-(methylthio)-2-oxo-1,2-dihydropyridin-3-yl)methyl)-1-(1-(1-(2,2,2-trifluoroethyl)piperidin-4-yl)ethyl)-1H-indole-3-carboxamide], at PRC2 containing wt EZH2 (read-out: EZH2 (IC50)), the IC50 lay within 0.5 to 5 nM. In assay [1], the EC50 lay in the range of 10 to 100 nM.

`CSc1cc(C)[nH]c(=O)c1CNC(=O)c1c(C)n([C@H](C)C2CCN(CC(F)(F)F)CC2)c2cccc(Cl)c12` [Example 103, (R)-4-chloro-2-methyl-N-((6-methyl-4-(methylthio)-2-oxo-1,2-dihydropyridin-3-yl)methyl)-1-(1-(1-(2,2,2-trifluoroethyl)piperidin-4-yl)ethyl)-1H-indole-3-carboxamide] showed an IC50 at PRC2 containing wt EZH2 (EZH2 (IC50)) of less than 0.5 nM. For the same compound, the concentration for a half-maximal effect (EC50) in assay [1] is less than 10 nM.

For the compound `Cc1cc(SC(F)F)c(CNC(=O)c2c(C)n([C@H](C)C3CCN(CC(F)(F)F)CC3)c3ccccc23)c(=O)[nH]1` [Example 105, (R)-N-((4-((difluoromethyl)thio)-6-methyl-2-oxo-1,2-dihydropyridin-3-yl)methyl)-2-methyl-1-(1-(1-(2,2,2-trifluoroethyl)piperidin-4-yl)ethyl)-1H-indole-3-carboxamide], the IC50 at PRC2 containing wt EZH2 (read-out: EZH2 (IC50)) lay in the range of 0.5 to 5 nM. Moreover, in assay [1], the half-maximal effective concentration (EC50) lay in the range of 10 to 100 nM.

On to `CSc1cc(C)[nH]c(=O)c1CNC(=O)c1c(C)n([C@H](C)C2CCC(N3CC[C@@H](F)C3)CC2)c2ncc(Cl)cc12` (stereo partly drawn) [Example 107, 5-chloro-1-((R)-1-(4-((R)-3-fluoropyrrolidin-1-yl)cyclohexyl)ethyl)-2-methyl-N-((6-methyl-4-(methylthio)-2-oxo-1,2-dihydropyridin-3-yl)methyl)-1H-pyrrolo[2,3-b]pyridine-3-carboxamide], for which, at PRC2 containing wt EZH2 (read-out: EZH2 (IC50)), the IC50 is less than 0.5 nM. Further, the EC50 in assay [1] is 10 to 100 nM.

With `CSc1cc(C)[nH]c(=O)c1CNC(=O)c1c(C)n([C@H](C)C2CCC(N3CC(OC(F)F)C3)CC2)c2ncncc12` (stereo partly drawn) [Example 108, 7-((R)-1-(4-(3-(difluoromethoxy)azetidin-1-yl)cyclohexyl)ethyl)-6-methyl-N-((6-methyl-4-(methylthio)-2-oxo-1,2-dihydropyridin-3-yl)methyl)-7H-pyrrolo[2,3-d]pyrimidine-5-carboxamide], on PRC2 containing wt EZH2 (read-out: EZH2 (IC50)), the half-maximal inhibitory concentration (IC50) is less than 0.5 nM. Also, in assay [1], the EC50 is less than 10 nM.

For the compound `Cc1cc(SC2CCC2)c(CNC(=O)c2c(C)n([C@H](C)C3CCN(CC(F)(F)F)CC3)c3ccccc23)c(=O)[nH]1` [Example 109, (R)-N-((4-(cyclobutylthio)-6-methyl-2-oxo-1,2-dihydropyridin-3-yl)methyl)-2-methyl-1-(1-(1-(2,2,2-trifluoroethyl)piperidin-4-yl)ethyl)-1H-indole-3-carboxamide], the concentration for half-maximal inhibition (IC50) on PRC2 containing wt EZH2 (read-out: EZH2 (IC50)) is less than 0.5 nM. Further, the EC50 in assay [1] lay in the range of 10 to 100 nM.

As to `CSc1cc(C)[nH]c(=O)c1CNC(=O)c1c(C)n([C@H](C)C2CCC(N3CC(C(F)(F)F)C3)CC2)c2ncccc12` (stereo partly drawn) [Example 110, 2-methyl-N-((6-methyl-4-(methylthio)-2-oxo-1,2-dihydropyridin-3-yl)methyl)-1-((R)-1-(4-(3-(trifluoromethyl)azetidin-1-yl)cyclohexyl)ethyl)-1H-pyrrolo[2,3-b]pyridine-3-carboxamide], the IC50 at PRC2 containing wt EZH2 (read-out: EZH2 (IC50)) was less than 0.5 nM. The EC50 in assay [1] lay in the range of 10 to 100 nM.
